Test results published in US20220387455A1, “TREATMENT OF MODERATE TO SEVERE INFLUENZA” (priority 2015, published 2022).
Where a name gives a salt, the structure may show the parent alone. Read-outs that look alike come from different tables or passages of the source.

Experiments:
[1] = Example 1: clinical safety of single inhaled doses in healthy adults; assay type: in vivo, human
Procedure: In a controlled clinical environment, 38 healthy adults received single doses of either 0.9% saline solution as placebo or up to 750 mg of ASA by inhalation (placebo n=10, ASA n=28).

[2] = in vivo
[3] = tested on: influenza virus infection; conditions: for Time to alleviation of clinical influenza symptoms (T1), Mean: 800 mg LASAG (400 mg ASA) inhaled three times daily

CC(=O)Oc1ccccc1C(=O)O [ASA, acetylsalicylic acid]
Serious events or severe adverse effects ([1]; single inhaled doses up to 750 mg ASA): no serious events or severe adverse effects were observed | Tolerability of administered doses ([1]; single inhaled doses up to 750 mg ASA as LASAG solution about 200 mg/ml, AKITA Apixneb): overall well tolerated | Effect on pulmonary function tests parameters ([1]; single inhaled doses up to 750 mg ASA, higher doses): no effect on pulmonary function tests parameters

CC(=O)Oc1ccccc1C(=O)O [LASAG, D,L-lysine acetylsalicylate glycine salt]
Number of adverse events (AE) ([2]; human): 41 | Number of patients affected by AE ([2]; human): 23 | Required medication due to AEs ([2]; human): About 56.1% | Share of all adverse events (AE) ([2]; human): 49.4% | Share of group patients affected by AE ([2]; human): 41.1% | Death or other significant adverse events [2]: no case of death or other significant adverse events | Difference to placebo with regard to tolerability [2]: no significant differences | Time to alleviation of clinical influenza symptoms (T1), Max. ([3]; CSS ≥14, per protocol set): 67.4 h | Time to alleviation of clinical influenza symptoms (T1), Min. ([3]; CSS ≥14, per protocol set): 9.8 h | Time to alleviation of clinical influenza symptoms (T1), Q1 ([3]; CSS ≥14, per protocol set): 23.5 h | Time to alleviation of clinical influenza symptoms (T1), Q3 ([3]; CSS ≥14, per protocol set): 52.4 h | Time to alleviation of clinical influenza symptoms (T1), Mean ([3]; CSS ≥14, per protocol set): 38.3 h | Time to alleviation of clinical influenza symptoms (T1), Median ([3]; CSS ≥14, per protocol set, 800 mg LASAG inhaled three times daily): 27.8 h | Time to alleviation of clinical influenza symptoms (T1), Max. ([3]; CSS ≥17, per protocol set): 66.9 h | Time to alleviation of clinical influenza symptoms (T1), Median ([3]; CSS ≥17, per protocol set): 47.0 h | Time to alleviation of clinical influenza symptoms (T1), Min. ([3]; CSS ≥17, per protocol set): 23.5 h | Time to alleviation of clinical influenza symptoms (T1), Q1 ([3]; CSS ≥17, per protocol set): 27.8 h | Time to alleviation of clinical influenza symptoms (T1), Q3 ([3]; CSS ≥17, per protocol set): 62.1 h | Time to alleviation of clinical influenza symptoms (T1), Mean ([3]; CSS ≥17, per protocol set): 44.7 h | Time to alleviation of influenza symptoms T1 ([3]; first patient group with CSS (log rank p 0.0313), placebo 51.6 h): 38.3 h | Difference to placebo in time required for alleviation of clinical influenza symptoms ([3]; human, in vivo): no significant difference | Recovery by baseline corrected daily activity score (DAS) ([3]; human, in vivo): better recovery than the placebo group | Number of inhalations after which patients were alleviated ([3]; patients with CSS, assuming start with the morning inhalation, placebo about 9): about 6 inhalations | Time to alleviation of influenza symptoms T1 ([3]; second patient group with CSS (log rank p 0.0152), placebo 71.5 h): 44.7 h
